According to patent US20150094474A1, “AGRICULTURAL CHEMICALS” (Redx Pharma Ltd., priority 2012, published 2015):

What was measured:
barley = assay: Herbicidal bioassay, barley (% necrosis); format: in vivo
Experimental: (§1) A laboratory bioassay was conducted to screen ten compounds (Fluazifop (25); Ethyl fluazifop (62); five fluazifop analogues: 27, 28, 63, 64 and 65; mesofulfuron (6); and two mesosulfuron analogues: 8 and 61. for activity against Lolium perenne, barley, peas and Chinese cabbage. Compounds were diluted in DMSO. Controls were performed using both DMSO and water.
(§2) Plants were obtained as seeds and were grown to the 2-4 true leaf stage. Plants were grown individually in seed trays. Each plant (in an approximately 3 cm diameter plug) was then detached from the tray for spraying. Environmental conditions were closely monitored and recorded and were within the optimal range of the target species.
(§3) The compounds were screened at a range of six concentrations, eg. 0.05%, 0.01%, 0.005%, 0.001%, 0.0005% and 0.0001%. Treatments will be applied directly onto the plants, using a potter tower.
(§4) One plant of each type will be sprayed using a potter tower. The 4 different types of weeds will be placed in a 10 cm diameter area underneath the potter sprayer and sprayed simultaneously. The growth of the plants and any Phytotoxicity effects will then be assessed at specified growth intervals, according to EPPO guideline PP1/135. Five replicates will be performed for each treatment, for each species.

peas = assay: Herbicidal bioassay, peas (% necrosis); format: in vivo
Experimental: as §1, §2, §3, §4

CC(CO)Oc1ccc(Oc2ccc(C(F)(F)F)cn2)cc1 (stereo not drawn) [Compound 27, 2-[4-[[5-(Trifluoromethyl)-2-pyridyl]oxy]phenoxy]propan-1-ol]
C (less than 50% necrosis): Sum of % necrosis in barley (barley; Dose 0.000001, Day 0) | Sum of % necrosis in barley (barley; Dose 0.000001, Day 3) | Sum of % necrosis in barley (barley; Dose 0.000001, Day 7) | Sum of % necrosis in barley (barley; Dose 0.000001, Day 10) | Sum of % necrosis in barley (barley; Dose 0.000001, Day 14) | Sum of % necrosis in barley (barley; Dose 0.000001, Day 21) | Sum of % necrosis in barley (barley; Dose 0.000005, Day 0) | Sum of % necrosis in barley (barley; Dose 0.000005, Day 3) | Sum of % necrosis in barley (barley; Dose 0.000005, Day 7) | Sum of % necrosis in barley (barley; Dose 0.000005, Day 10) | Sum of % necrosis in barley (barley; Dose 0.000005, Day 14) | Sum of % necrosis in barley (barley; Dose 0.000005, Day 21) | Sum of % necrosis in barley (barley; Dose 0.00001, Day 0) | Sum of % necrosis in barley (barley; Dose 0.00001, Day 3) | Sum of % necrosis in barley (barley; Dose 0.00001, Day 7) | Sum of % necrosis in barley (barley; Dose 0.00001, Day 10) | Sum of % necrosis in barley (barley; Dose 0.00001, Day 14) | Sum of % necrosis in barley (barley; Dose 0.00001, Day 21) | Sum of % necrosis in barley (barley; Dose 0.00005, Day 0) | Sum of % necrosis in barley (barley; Dose 0.00005, Day 3) | Sum of % necrosis in barley (barley; Dose 0.00005, Day 7) | Sum of % necrosis in barley (barley; Dose 0.00005, Day 10) | Sum of % necrosis in barley (barley; Dose 0.00005, Day 14) | Sum of % necrosis in barley (barley; Dose 0.00005, Day 21) | Sum of % necrosis in barley (barley; Dose 0.0001, Day 0) | Sum of % necrosis in barley (barley; Dose 0.0001, Day 3) | Sum of % necrosis in barley (barley; Dose 0.0001, Day 7) | Sum of % necrosis in barley (barley; Dose 0.0001, Day 10) | Sum of % necrosis in barley (barley; Dose 0.0001, Day 14) | Sum of % necrosis in barley (barley; Dose 0.0001, Day 21) | Sum of % necrosis in barley (barley; Dose 0.0005, Day 0) | Sum of % necrosis in barley (barley; Dose 0.0005, Day 3) | Sum of % necrosis in barley (barley; Dose 0.0005, Day 7) | Sum of % necrosis in barley (barley; Dose 0.0005, Day 10) | Sum of % necrosis in barley (barley; Dose 0.0005, Day 14) | Sum of % necrosis in barley (barley; Dose 0.0005, Day 21) | Sum of % necrosis in Peas (peas; Dose 0.000001, Day 0) | Sum of % necrosis in Peas (peas; Dose 0.000001, Day 1) | Sum of % necrosis in Peas (peas; Dose 0.000001, Day 3) | Sum of % necrosis in Peas (peas; Dose 0.000001, Day 7) | Sum of % necrosis in Peas (peas; Dose 0.000001, Day 10) | Sum of % necrosis in Peas (peas; Dose 0.000001, Day 14) | Sum of % necrosis in Peas (peas; Dose 0.000001, Day 21) | Sum of % necrosis in Peas (peas; Dose 0.000005, Day 0) | Sum of % necrosis in Peas (peas; Dose 0.000005, Day 1) | Sum of % necrosis in Peas (peas; Dose 0.000005, Day 3) | Sum of % necrosis in Peas (peas; Dose 0.000005, Day 7) | Sum of % necrosis in Peas (peas; Dose 0.000005, Day 10) | Sum of % necrosis in Peas (peas; Dose 0.000005, Day 14) | Sum of % necrosis in Peas (peas; Dose 0.000005, Day 21) | Sum of % necrosis in Peas (peas; Dose 0.00001, Day 0) | Sum of % necrosis in Peas (peas; Dose 0.00001, Day 1) | Sum of % necrosis in Peas (peas; Dose 0.00001, Day 3) | Sum of % necrosis in Peas (peas; Dose 0.00001, Day 7) | Sum of % necrosis in Peas (peas; Dose 0.00001, Day 10) | Sum of % necrosis in Peas (peas; Dose 0.00001, Day 14) | Sum of % necrosis in Peas (peas; Dose 0.00001, Day 21) | Sum of % necrosis in Peas (peas; Dose 0.00005, Day 0) | Sum of % necrosis in Peas (peas; Dose 0.00005, Day 1) | Sum of % necrosis in Peas (peas; Dose 0.00005, Day 3) | Sum of % necrosis in Peas (peas; Dose 0.00005, Day 7) | Sum of % necrosis in Peas (peas; Dose 0.00005, Day 10) | Sum of % necrosis in Peas (peas; Dose 0.00005, Day 14) | Sum of % necrosis in Peas (peas; Dose 0.00005, Day 21) | Sum of % necrosis in Peas (peas; Dose 0.0001, Day 0) | Sum of % necrosis in Peas (peas; Dose 0.0001, Day 1) | Sum of % necrosis in Peas (peas; Dose 0.0001, Day 3) | Sum of % necrosis in Peas (peas; Dose 0.0001, Day 7) | Sum of % necrosis in Peas (peas; Dose 0.0001, Day 10) | Sum of % necrosis in Peas (peas; Dose 0.0001, Day 14) | Sum of % necrosis in Peas (peas; Dose 0.0001, Day 21) | Sum of % necrosis in Peas (peas; Dose 0.0005, Day 0) | Sum of % necrosis in Peas (peas; Dose 0.0005, Day 1) | Sum of % necrosis in Peas (peas; Dose 0.0005, Day 3) | Sum of % necrosis in Peas (peas; Dose 0.0005, Day 7) | Sum of % necrosis in Peas (peas; Dose 0.0005, Day 10) | Sum of % necrosis in Peas (peas; Dose 0.0005, Day 14) | Sum of % necrosis in Peas (peas; Dose 0.0005, Day 21)
